Source: patent US10918106B2, “Methods for hydraulic enhancement of crops” (Sound Agriculture Company, priority 2015, dated 2021)
Entries after “also recorded” stand apart in the source; their conditions may differ.

How the values were obtained:
Assay type in all cases: in vivo
plant = assay: Hydraulic enhancement test of ABA biosynthesis inhibitor fluridone; conditions: fluridone 1 μg (FIG. 15)
Method: Using this discovery, it could be reasoned that addition of inhibitors of ABA biosynthesis would result in increased hydraulic enhancement. In another experiment, fluridone was tested for its effect in hydraulic enhancement. Fluridone is an inhibitor of the phytoene destaturase, which is an upstream step in the synthesis of abscisic acid.

tested plant = assay: Hydraulic enhancement test of plant growth regulators (gibberellins, cytokinins); conditions: for hydraulic enhancement by gibberellins: FIG. 16
Method: Specific combinations of plant growth regulators (PGRs) were used for hydraulic enhancement and increased harvest yield of crops. PGRs were tested to be co-applied with strigolactones and/or AB compounds (e.g., AB01). PGRs were also tested in the absence of strigolactones and/or AB compounds. […] PGRs were tested as a seed treatment, soil drench, granule formulation, or foliar spray. […] In another experiment, the effect of hydraulic enhancement was also tested with cytokinins, including kinetin, zeatin, 6-benzylaminopurine (6-BAP), diphenylurea, thidiazuron, and their chemical derivatives and analogs.

[1] = tested on: corn (Zea mays) seedlings; assay: ex vivo hydraulic enhancement (xVHS) transpiration assay
Method: In this assay with corn (Zea mays), seedlings were grown in defined potting soil (in this case, Sunshine Mix #4) for 2 weeks until they were approximately 15 to 20 centimeters tall. Seedlings were then cut at the base of the stem and placed in individual tubes with defined volume of water (FIG. 4A). Hydraulic enhancing chemistry (for example, AB01) was present in the defined volume of water at various concentrations. Excised seedlings were placed in a defined temperature and humidity environment under continuous illumination, and water use was measured after 12, 18, or 24 hours. Using this assay, chemistry or other inputs that induce hydraulic enhancement can be tested and discovered. In this assay, 100 ng of AB01 in acetone was added to 2 week old corn seedlings and water use was monitored over 24 hours.

Compound | hydraulic enhancement by gibberellins (tested plant) | also measured
fluridone |  | effect on hydraulic enhancement (plant): improved hydraulic enhancement; also recorded: increase hydraulic enhancement
c1ccc(CNc2ncnc3nc[nH]c23)cc1 [6-BAP, 6-benzylaminopurine] |  | hydraulic enhancement by cytokinin (tested plant; 1 μg (FIG. 17)): improved hydraulic enhancement; also recorded: elicit hydraulic enhancement
CC1CC23CC1CCC2C1(C)CCCC(C)(C)C1C3C (stereo not drawn) [ent-gibberellane] | hydraulic enhancement was elicited | 
C=C1C[C@]23C[C@@]1(O)CC[C@H]2[C@@]12CC[C@H](O)[C@@](C)(C(=O)O1)[C@H]2[C@@H]3C(=O)O [GA1] | hydraulic enhancement was elicited | 
C=C1C[C@]23C[C@@]1(O)CC[C@H]2[C@@]12C=C[C@H](O)[C@@](C)(C(=O)O1)[C@H]2[C@@H]3C(=O)O [GA3] | hydraulic enhancement was elicited | 
C=C1C[C@]23C[C@@]1(O)CC[C@H]2[C@@]12C=C[C@H](O)[C@@](C)(C(=O)O1)[C@H]2[C@@H]3C(=O)O [gibberellic acid] | improved hydraulic enhancement | 
CC1=CC(Oc2c(C)occc2=O)OC1=O (stereo not drawn) [AB09, 2-methyl-3-((4-methyl-5-oxo-2,5-dihydrofuran-2-yl)oxy)-4H-pyran-4-one] |  | increase in transpiration ([1]; 10Ong added to the xVHS assay (FIG. 12)): 40%; ability to induce hydraulic enhancement ([1]; screen of AB compounds/strigolactones (FIG. 12)): able to induce hydraulic enhancement; also recorded: resulted in hydraulic enhancement of crop plants
CC1=CC(=O)CC(C)(C)[C@@]1(O)/C=C/C(C)=C\C(=O)O [abscisic acid] |  | effect on hydraulic enhancement in the xVHS assay ([1]; addition of abscisic acid (FIG. 14)): inhibited hydraulic enhancement; also recorded: reduce the hydraulic enhancement
C=C1C[C@@]23CC[C@@H]4C(C)(C)CCC[C@@]4(C)[C@@H]2CC[C@@H]1C3 [ent-kaurene] | hydraulic enhancement was elicited | 
C=C1C[C@]23C[C@H]1CC[C@H]2[C@@]12C=C[C@H](O)[C@@](C)(C(=O)O1)[C@H]2[C@@H]3C(=O)O [GA7] | hydraulic enhancement was elicited | 
C=C1C[C@]23C[C@H]1CC[C@H]2[C@@]12CC[C@H](O)[C@@](C)(C(=O)O1)[C@H]2[C@@H]3C(=O)O [GA4] | hydraulic enhancement was elicited | 
